Patent US20260232714A1, “COMPOSITION CONTAINING NICOTINAMIDE MONONUCLEOTIDE” (MEIJI HOLDINGS CO., LTD., priority 2023, published 2026)
Entries after “also recorded” stand apart in the source; their conditions may differ.

Test: Test 1: blood NMN concentration after oral or sublingual administration of NMN (plasma, LC-MS/MS)
Type: in vivo, human
Experimental: Tablets were used for oral administration. The content of NMN was 500 mg.
Powder was used for sublingual administration. The content of NMN was 250 mg.
One adult with no abnormal health conditions participated in the test. The test was conducted over two separate days.
Then, 250 mg of NMN (powder) was placed under the tongue, so that the powder was dissolved with saliva, and the test subject was maintained in that state. After 1 minute, the test subject spit out all NMN from the mouth, and blood was collected from the fingertip 5, 10, 15, and 30 minutes after the NMN was placed under the tongue.
NMN concentration was determined by LC-MS/MS. Details of the measurements are described below.
• Liquid A: 5 mM Ammonium formate aqueous solution • Liquid B: Acetonitrile

[1] = sublingual administration, in some test subjects

maximum blood concentration [1]: ≥ 5 µg/mL
time to reach the maximum blood concentration after administration [1]: about 5 minutes
Compound: NC(=O)c1ccc[n+]([C@@H]2O[C@H](COP(=O)([O-])O)[C@@H](O)[C@H]2O)c1 [NMN, nicotinamide mononucleotide]
blood NMN concentration compared with that observed before NMN ingestion (0 minute) (oral administration, one tablet 500 mg NMN with water, one adult, 5-60 minutes, plasma): virtually unchanged; also recorded: does not increase; also recorded: almost unchanged
